Laboratory results: paper PMC11358092, “Caspofungin enhances the potency of rifampin against Gram-negative bacteria” (Frontiers in Microbiology, 2024)
Structures can show the parent of a compound that is named as a salt. Where two headings read alike, the source gives them in different places.

What was measured:
E. coli MG1655 [1] = assay: High-throughput screening of FDA-approved drug library for antibiotic adjuvants (growth inhibition, OD600); type: cell-based, Escherichia coli
E. coli MG1655 [2] = assay: as above; type: cell-based, Escherichia coli; conditions: library drug alone, LB medium, 96-well, 8 h static culture at 37°C, relative to PMBN (positive) and DMSO (negative) controls, %, table head prints no unit
[3] = library drug with 2 μg/mL rifampin, LB medium, 96-well, 8 h static culture at 37°C, OD600, relative to PMBN (positive) and DMSO (negative) controls, %, table head prints no unit

| Compound | Growth inhibition, Compound (E. coli MG1655 [2]) [%] | further results |
| --- | --- | --- |
| Colistin Methanesulfonate (sodium salt) | 87 | Growth inhibition, Compound + rifampin (E. coli MG1655 [1]; [3]): 102% |
| Cefetamet pivoxil hydrochloride | 98 | Growth inhibition, Compound + rifampin (E. coli MG1655 [1]): 79% |
| O=C(O)c1cn(C2CC2)c2cc(N3CCNCC3)c(F)cc2c1=O [Ciprofloxacin hydrochloride hydrate] |  | Growth inhibition, Compound (E. coli MG1655 [1]): 101% |
| Colistimethate Sodium | 94 | Growth inhibition, Compound + rifampin (E. coli MG1655 [1]; [3]): 95% |
| Polymyxin B sulfate (1404-26-8 free base) |  | Growth inhibition, Compound + rifampin (E. coli MG1655 [1]; [3]): 104% |
| O=C(Cn1cnnn1)N[C@@H]1C(=O)N2C(C(=O)[O-])=C(CSc3nncs3)CS[C@H]12.[Na+] [Ceftezole sodium] | 109 | Growth inhibition, Compound + rifampin (E. coli MG1655 [1]): 102% |
| CO[C@@]1(NC(=O)CSC(F)F)C(=O)N2C(C(=O)[O-])=C(CSc3nnnn3CCO)CO[C@@H]21.[Na+] [Flomoxef sodium] | 108 | Growth inhibition, Compound + rifampin (E. coli MG1655 [1]): 101% |
| C=C1c2c(Cl)ccc(O)c2C(=O)C2=C(O)[C@]3(O)C(=O)C(C(N)=O)=C(O)[C@@H](N(C)C)[C@@H]3[C@@H](O)[C@H]12.O=C(O)c1cc(S(=O)(=O)O)ccc1O [Meclocycline sulfosalicylate salt] | 100 | Growth inhibition, Compound + rifampin (E. coli MG1655 [1]): 100% |
| O=C(O)c1cn(C2CC2)c2cc(N3CCNCC3)c(F)cc2c1=O [Ciprofloxacin hydrochloride] |  | Growth inhibition, Compound (E. coli MG1655 [1]): 98% |
| CN[C@@H]1[C@H](O)[C@H](NC)[C@H]2O[C@@]3(O)C(=O)C[C@@H](C)O[C@H]3O[C@@H]2[C@H]1O.Cl.Cl.O.O.O.O.O [Spectinomycin dihydrochloride pentahydrate] | 96 |  |
| CN(C)[C@@H]1C(O)=C(C(N)=O)C(=O)[C@@]2(O)C(O)=C3C(=O)c4c(O)cccc4[C@@](C)(O)C3[C@H](O)C12.Cl (some centres unmarked) [Aquacycline] | 110 |  |
| Cl.N[C@@H]1CCCCN(c2c(F)cc3c(=O)c(C(=O)O)cn(C4CC4)c3c2Cl)C1 [Besifloxacin HCl] | 107 |  |
| Cc1nnc(SCC2=C(C(=O)O)N3C(=O)[C@@H](NC(=O)Cn4cnnn4)[C@H]3SC2)s1 [Cefazolin sodium salt] | 90 |  |
| NC(=O)N/N=C/c1ccc([N+](=O)[O-])o1 [Furacilin] | 76 |  |
| Cc1c(N)nc([C@H](CC(N)=O)NC[C@H](N)C(N)=O)nc1C(=O)N[C@H](C(=O)N[C@H](C)[C@@H](O)[C@H](C)C(=O)N[C@H](C(=O)NCCc1nc(-c2nc(C(=O)NCCC[S+](C)C)cs2)cs1)[C@@H](C)O)[C@@H](O[C@@H]1O[C@@H](CO)[C@@H](O)[C@H](O)[C@@H]1O[C@H]1O[C@H](CO)[C@@H](O)[C@H](OC(N)=O)[C@@H]1O)c1cnc[nH]1.O=S(=O)([O-])O [Bleomycin Sulfate] | 110 |  |
| CCn1cc(C(=O)O)c(=O)c2cc(F)c(N3CCNC(C)C3)c(F)c21 (centres unmarked) [Lomefloxacin] | 99 |  |
| CN(C)[C@@H]1C(O)=C(C(N)=O)C(=O)[C@@]2(O)C(O)=C3C(=O)c4c(O)ccc(Cl)c4[C@@H](O)[C@H]3C[C@@H]12 [Demeclocycline hydrochloride] | 99 |  |
| CS(=O)(=O)c1ccc([C@@H](O)[C@@H](CF)NC(=O)C(Cl)Cl)cc1 [Florfenicol] | 116 |  |
| C[C@H]1COc2c(N3CCN(C)CC3)c(F)cc3c(=O)c(C(=O)O)cn1c23 [Levofloxacin hydrochloride] | 110 |  |
| C[C@@H](O)[C@H]1C(=O)N2C(C(=O)O)=C(SCCN=CN)C[C@H]12 [Imipenem monohydrate] | 109 |  |
